Results as given in patent US10138225B2 (Achillion Pharmaceuticals, Inc., priority 2015, dated 2018).

Target: T1, Human Factor D (Homo sapiens, UniProt P00746)
T1 construct: purified from human serum; purchased Complement Technology, Inc; host or cells: human serum (natural protein, not recombinant)
Assay: Human Factor D Assay
Format: biochemical
Conditions: Table 3; factor D inhibition assay; read-out: IC50 (Stars)
Method in brief: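 Serum-purified human factor D (80 nM final) was preincubated with compound for 5 min at room temperature in 50 mM Tris, 1 M NaCl, pH 7.5. Z-L-Lys-SBzl and DTNB were added at 100 μM each, and A405 was read every 30 s for 30 min. IC50 came from nonlinear regression of reaction rates versus compound concentration.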

T1 sequence (P00746 26-253): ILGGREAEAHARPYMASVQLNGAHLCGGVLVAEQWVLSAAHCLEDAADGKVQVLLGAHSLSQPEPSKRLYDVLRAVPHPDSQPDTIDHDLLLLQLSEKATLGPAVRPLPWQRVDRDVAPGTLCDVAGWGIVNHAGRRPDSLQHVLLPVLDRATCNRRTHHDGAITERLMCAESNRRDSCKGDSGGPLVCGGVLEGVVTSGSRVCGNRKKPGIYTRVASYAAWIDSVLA

SMILES | IC50 [nM]
CC(=O)c1cn(CC(=O)N2C[C@H](F)C[C@H]2C(=O)NCCc2ccccc2)c2ccc(NC(=O)N3CCCC(F)(F)C3)cc12 [Compound 197, N-(3-acetyl-1-(2-((2S,4R)-4-fluoro-2-(phenethylcarbamoyl)pyrrolidin-1-yl)-2-oxoethyl)-1H-indol-5-yl)-3,3-difluoropiperidine-1-carboxamide] | < 1000
CC(=O)c1cn(CC(=O)N2C[C@H](F)C[C@H]2C(=O)NCCCc2ccccc2)c2ccc(NC(=O)N3CCCC(F)(F)C3)cc12 [Compound 198, N-(3-acetyl-1-(2-((2S,4R)-4-fluoro-2-((3-phenylpropyl)carbamoyl)pyrrolidin-1-yl)-2-oxoethyl)-1H-indol-5-yl)-3,3-difluoropiperidine-1-carboxamide] | < 1000
CC(=O)c1cn(CC(=O)N2C[C@H](F)C[C@H]2C(=O)NCCCCc2ccccc2)c2ccc(NC(=O)N3CCCC(F)(F)C3)cc12 [Compound 199, N-(3-acetyl-1-(2-((2S,4R)-4-fluoro-2-((4-phenylbutyl)carbamoyl)pyrrolidin-1-yl)-2-oxoethyl)-1H-indol-5-yl)-3,3-difluoropiperidine-1-carboxamide] | < 1000
CC(=O)c1cn(CC(=O)N2C[C@H](F)C[C@H]2CCNS(=O)(=O)c2ccccc2)c2ccc(NC(=O)N3CCCC(F)(F)C3)cc12 [Compound 201, N-(3-acetyl-1-(2-((2R,4R)-4-fluoro-2-(2-(phenylsulfonamido)ethyl)pyrrolidin-1-yl)-2-oxoethyl)-1H-indol-5-yl)-3,3-difluoro-piperidine-1-carboxamide] | 1000 to 10000
CC(=O)c1cn(CC(=O)N2CC[C@H]2C(=O)Nc2cccc(C)n2)c2ccc(NC(=O)N3CCCC(F)(F)C3)cc12 [Compound 205, (S)-N-(3-acetyl-1-(2-(2-((6-methylpyridin-2-yl)-carbamoyl)-azetidin-1-yl)-2-oxoethyl)-1H-indol-5-yl)-3,3-difluoropiperidine-1-carboxamide] | > 10000
Cc1cccc(NC(=O)[C@@H]2[C@H]3CC[C@H](C3)N2C(=O)Cn2cc(C(N)=O)c3cc(C(=O)N4CCCC(F)(F)C4)ccc32)n1 [Compound 206, 5-(3,3-difluoropiperidine-1-carbonyl)-1-(2-((1R,3S,4S)-3-((6-methyl-pyridin-2-yl)-carbamoyl)-2-aza-bicyclo[2.2.1]heptan-2-yl)-2-oxoethyl)-1H-indole-3-carboxamide] | 1000 to 10000
CC(=O)c1nn(CC(=O)N2C[C@H](F)C[C@H]2C(=O)Nc2cccc(Br)n2)c2ccc(NC(=O)N3CCC(F)(F)C3)cc12 [Compound 207, N-(3-acetyl-1-(2-((2S,4R)-2-((6-bromo-pyridin-2-yl)carbamoyl)-4-fluoro-pyrrolidin-1-yl)-2-oxoethyl)-1H-indazol-5-yl)-3,3-difluoro-pyrrolidine-1-carboxamide] | < 1000
CC(=O)c1cn(CC(=O)N2C[C@H](F)C[C@H]2C(=O)NCc2cccc(Cl)c2F)c2ccc(C(=O)NS(=O)(=O)C3CC3)cc12 [Compound 208, 3-acetyl-1-(2-((2S,4R)-2-((3-chloro-2-fluorobenzyl)carbamoyl)-4-fluoropyrrolidin-1-yl)-2-oxoethyl)-N-(cyclopropylsulfonyl)-1H-indole-5-carboxamide] | < 1000
Cc1cccc(NC(=O)[C@@H]2[C@H]3CC[C@H](C3)N2C(=O)Cn2cc(C(N)=O)c3cc(C(=O)NS(=O)(=O)C4CC4)ccc32)n1 [Compound 209, N5-(cyclopropylsulfonyl)-1-(2-((1R,4S)-3-((6-methyl-pyridin-2-yl)carbamoyl)-2-aza-bicyclo[2.2.1]heptan-2-yl)-2-oxoethyl)-1H-indole-3,5-dicarboxamide] | > 10000
CC(=O)c1nn(CC(=O)N2C[C@H](F)C[C@H]2C(=O)Nc2cccc(Br)n2)c2ccc(NC(=O)C3CCCC3(F)F)cc12 (stereo partly drawn) [Compound 230] | < 1000
CC(=O)c1nn(CC(=O)N2C[C@H](F)C[C@H]2C(=O)Nc2cccc(Br)n2)c2cc(C(=O)NS(=O)(=O)C3CC3)ccc12 [Compound 233, 3-acetyl-1-(2-((2S,4R)-2-((6-bromopyridin-2-yl)-carbamoyl)-4-fluoro-pyrrolidin-1-yl)-2-oxoethyl)-N-(cyclopropylsulfonyl)-1H-indazole-6-carboxamide] | < 1000
CC(=O)c1nn(CC(=O)N2[C@H](C(=O)Nc3cccc(Br)n3)C[C@@]3(C)C[C@@H]23)c2cc(C(=O)NS(=O)(=O)C3CC3)ccc12 [Compound 234, 3-acetyl-1-(2-((1R,3S,5R)-3-((6-bromopyridin-2-yl)carbamoyl)-5-methyl-2-azabicyclo [3.1.0]hexan-2-yl)-2-oxoethyl)-N-(cyclopropylsulfonyl)-1H-indazole-6-carboxamide] | 1000 to 10000
